PubChem BioAssay (NCI)
Values joined by “and” are separate entries in the source; they are usually repeats but may differ in a detail not shown here. Equal values may be shown once.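 48-hour exposure; five concentrations; linearly interpolated endpoints. The concentration for 50% growth inhibition is given as GI50. TGI: concentration producing complete growth inhibition.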

What was measured:
Test in all cases: inhibition of tumour cell growth, NCI panel, 48 h
[1] = test system: HCT-15 colon
[2] = test system: IGROV1 ovarian
[3] = test system: KM12 colon
[4] = test system: SF-295 CNS
[5] = test system: SF-539 CNS
[6] = test system: SK-OV-3 ovarian
[7] = test system: SNB-75 CNS
[8] = test system: TK-10 renal
[9] = test system: ACHN renal
[10] = test system: OVCAR-4 ovarian

| SMILES | GI50 [1] [µM] | TGI [1] [µM] | GI50 [2] | TGI [2] [µM] | GI50 [3] [µM] | TGI [3] [µM] | GI50 [4] [µM] | TGI [4] [µM] | GI50 [5] [µM] | TGI [5] [µM] | GI50 [6] [µM] | TGI [6] [µM] | GI50 [7] [µM] | TGI [7] [µM] | GI50 [8] [µM] | TGI [8] [µM] | GI50 [9] [µM] | TGI [9] | TGI [10] [µM] | GI50 [10] [µM] |
| --- | --- | --- | --- | --- | --- | --- | --- | --- | --- | --- | --- | --- | --- | --- | --- | --- | --- | --- | --- | --- |
| Cc1ccc(NCCNCC(C)(C)O)c2c(=O)c3ccc(Cl)cc3sc12 | 1.05 | 2.32 | 1.35 µM | 2.96 | 1.63 | 3.13 | 1.66 | 3.11 | 1.44 | 2.82 | 1.46 | 2.98 | 1.34 | 2.85 | 2.17 | 3.89 | – | – | – | – |
| CCCCCCCCCCCC/C=C\CC[C@@H](O)[C@H](O)CC[C@H](O)[C@@H]1CC[C@@H](CCCCCCCC2=C[C@H](C)OC2=O)O1 | 8.86 | 33.8 | 7.09 µM | 28.1 | 12.9 | 46 | 0.291 | 15.5 | – | – | – | – | 12.8 | 29.1 | 10 | 28.6 | 4.35 | 4.71 µM and 26.3 µM | 26.8 | – |
| COC(=O)C1=NC(=S)NC(c2ccccc2)C1c1nc2ccccc2o1 (centres undefined) | – | > 50 | – | > 50 | – | > 50 | – | > 50 | – | > 50 | – | > 50 | – | – | – | > 50 | – | > 50 µM | > 50 | – |
| CC(C)(C)N/N=C(/Cc1nc2c3c(ccc2[nH]c1=O)C(=O)c1ccccc1C3=O)C(=O)NC1=C(Cl)C(=O)c2ccccc2C1=O | – | 20.3 | – | > 100 | – | 8.83 | – | > 100 | – | > 100 | – | > 100 | – | 9.03 | – | – | – | > 100 µM | 61.6 | – |
| C[N+](C)(C)CC1CCC(C[N+](C)(C)C)C1=NO (centres undefined) | – | > 100 | – | > 100 | – | > 100 | – | > 100 | – | > 100 | – | > 100 | – | > 100 | – | – | – | > 100 µM | > 100 | – |
| COc1cc(C2CC(c3ccccc3)=NN2C=O)ccc1Oc1ccnc2cc(Cl)ccc12 (centres undefined) | > 100 | > 100 | 35 µM | > 100 | > 100 | > 100 | 5.58 | 86.2 | 10.3 | 77.9 | 4.56 | > 100 | 3.31 | 21 | – | – | 17.4 | > 100 µM | 34 | 4.17 |
| COC(=O)C(=O)C(C(=O)C(=O)Nc1ccc([N+](=O)[O-])cc1)c1nc2ccccc2[nH]c1=O (centres undefined) | – | > 100 | – | > 100 | – | > 100 | – | – | – | – | – | > 100 | – | > 100 | – | > 100 | – | > 100 µM | > 100 | – |
| CC(C)(O)C1COC2=C1C(=O)c1ccccc1C2=O (centres undefined) | – | > 100 | – | > 100 | – | > 100 | – | > 100 | – | > 100 | – | > 100 | – | 82 | – | – | – | > 100 µM | > 100 | – |
| Cc1cc(N(CCC#N)CCC#N)ccc1/C=C(\NC(=O)/C=C/c1ccccc1)C(=O)Nc1ccccc1Cl | – | > 100 | – | > 100 | – | > 100 | – | > 100 | – | > 100 | – | – | – | – | – | – | – | > 100 µM | > 100 | – |
| CCN(CC)CCOC(COc1cc(C)cc(C)c1)COc1cc(C)cc(C)c1 | 3.01 | 12.4 | – | – | 3.04 | 11.7 | – | – | 1.62 | 3.3 | 4.86 | 17.7 | 5.75 | 20.8 | 3.45 | 14.5 | 3.6 | 13.8 µM | 13.7 | 2.33 |
| C=CCNC(=S)NNC(=O)c1c(C)nc2sccn12 | – | > 100 | – | > 100 | – | > 100 | – | > 100 | – | > 100 | – | > 100 | – | – | – | > 100 | – | > 100 µM | – | – |
| CCn1cc(C(=O)O)c(=O)c2cc(F)c(N3CCN(S(=O)(=O)c4ccc(Cl)cc4Cl)CC3)cc21 | 2.82 | > 100 | 2.33 µM | 5.08 | 3.42 | > 100 | – | – | 1.92 | 4.07 | 3 | 8.94 | – | – | 4.02 | 23 | 2.62 | 7.68 µM | > 100 | 2.58 |
| COc1cc(C(=O)c2cnc(-c3c[nH]c4cccc(C)c34)[nH]2)cc(OC)c1OC | 0.00659 | > 100 | 0.00842 µM and 0.0168 µM | > 100 | 0.00482 | > 100 | – | 52.9 | 0.00289 | 0.00874 | 0.0065 | 2.5 | 0.00257 | 36.8 | – | – | 0.00846 | 26.7 µM | > 100 | 0.529 |
| COc1ccc(/C=C/C(=N\NC(=O)c2ccccc2)c2sc(Nc3ccc([N+](=O)[O-])cc3)nc2C)cc1OC | – | 28.5 | – | – | – | 47.5 | – | 26.5 | – | 69.8 | – | > 100 | – | 17.8 | – | 66.5 | – | 41.8 µM | 36.9 | – |
| CC(C)c1ccc(O)c(Cc2cc(C(C)C)cc(Cc3cc(C(C)C)ccc3O)c2O)c1 | – | 3.24 | – | 6.54 | – | 3.74 | – | 3.3 | – | – | – | 3.05 | – | 5.03 | – | 4.72 | – | 10.8 µM | 2.68 | – |
| O=S(=O)(c1ccccc1)N1CCCC(c2ccccc2)CC1 (centres undefined) | – | > 100 | – | > 100 | – | > 100 | – | > 100 | – | > 100 | – | – | – | 94.6 | – | > 100 | – | > 100 µM | > 100 | – |
| FC(F)(F)c1ccccc1C1SCc2nc3ccccc3n21 (centres undefined) | – | – | – | > 100 | – | > 100 | – | > 100 | – | > 100 | – | > 100 | – | > 100 | – | > 100 | – | > 100 µM | – | – |
| Cc1cc(NCCCCCCCNc2cc(C)nc3cc(N)ccc23)c2ccc(N)cc2n1 | – | > 100 | – | – | – | 45.1 | – | > 100 | – | > 100 | – | > 100 | – | > 100 | – | > 100 | – | > 100 µM | > 100 | – |
| Nc1nc(SCc2ccccc2CCl)c2[nH]cnc2n1 | 14.5 | 31.1 | 14.5 µM | 47.9 | 14.8 | 28.1 | 18.7 | 56 | 21.9 | 54 | 16 | 32.2 | 15.3 | 32.7 | – | – | 18.6 | 74.6 µM | 37.3 | 13.2 |
